In ChEMBL document CHEMBL1201862, “PubChem BioAssay data set” (2004):
Activity calls are given as the source filed them.

Experiments:
Cytochrome P450 2D6 = Cytochrome P450 2D6 (Homo sapiens, UniProt P10635);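 also: CYP2D6 member of a cytochrome P450 panel assay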
Cytochrome P450 2C19 = Cytochrome P450 2C19 (Homo sapiens, UniProt P33261); assay: Cytochrome panel assay with activity outcomes. Panel member name: p450-cyp2c19 Compounds with AC50 equal or less than 10 uM are considered active; type: functional; conditions: read-out: AC50
[1] = biological target: Heat shock protein HSP 90-alpha (Homo sapiens, UniProt P07900); type: functional, organism-based
[2] = Luminescence Cell-Based Dose Retest to Confirm Inhibitors of Cancer Stem Cells. [Related pubchem assays (depositor defined):AID2717, AID2721]; type: functional; conditions: Homo sapiens
[3] = test system: Streptococcus sp. 'group A'; assay: Streptococcus pyogenes SK(-)GAS viability under kanamycin – luminescence, BacTiterGlo, confirmation, counter-screen for streptokinase expression inhibitor project, dose response (AID 1900); type: functional, organism-based
[4] = DRD fibroblast viability loss – cell-based, non-viral oncogenic, luminescence, dose response (AID 1934); type: functional; conditions: Homo sapiens
BJ [5] = assay: cells; type: functional, cell-based; conditions: Homo sapiens
Streptokinase A = biological target: T1, Streptokinase A (Streptococcus pyogenes serotype M1, UniProt P10520); assay: viability-normalized secreted streptokinase activity reduction – plasminogen activation absorbance, OD405, dose response (AID 1914); type: functional, Streptococcus pyogenes M1 GAS;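 also: secreted streptokinase activity via plasminogen activation per viability signal from cell pellet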
T1 sequence (P10520 whole entry): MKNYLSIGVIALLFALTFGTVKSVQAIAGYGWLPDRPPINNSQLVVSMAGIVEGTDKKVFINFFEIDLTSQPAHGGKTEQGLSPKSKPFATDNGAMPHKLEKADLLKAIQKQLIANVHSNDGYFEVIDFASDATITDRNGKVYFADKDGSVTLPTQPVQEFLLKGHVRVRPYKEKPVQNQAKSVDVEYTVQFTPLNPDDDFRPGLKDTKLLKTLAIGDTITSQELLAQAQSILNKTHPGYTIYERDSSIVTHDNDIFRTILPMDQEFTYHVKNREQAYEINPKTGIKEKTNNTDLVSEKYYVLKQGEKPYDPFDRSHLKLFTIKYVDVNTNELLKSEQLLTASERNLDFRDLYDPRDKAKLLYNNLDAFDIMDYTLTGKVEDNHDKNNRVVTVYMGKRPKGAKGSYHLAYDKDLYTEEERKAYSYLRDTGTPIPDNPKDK

Streptococcus = assay: GAS UMAA2166 growth inhibition – luminescence, BacTiterGlo, counter-screen for streptokinase expression inhibitor project, dose response (AID 1915); type: functional, organism-based;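 also: potency for reduction of bacterial viability or growth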
BJ [6] = assay: BJ-TERT-LT-ST fibroblast viability loss – cell-based, RAS-independent, luminescence, dose response (AID 1935); type: functional; conditions: Homo sapiens;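 also: BJ fibroblasts immortalized with TERT plus LT and ST oncogenes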
BJ [7] = assay: BJ-TERT fibroblast viability loss – cell-based, RAS-independent, luminescence, dose response (AID 1933); type: functional; conditions: Homo sapiens
INS1 = assay: INS-1E survival protection against cytokine death – cell-based, luminescence, retest, dose response (AID 449756); type: functional; conditions: Rattus norvegicus;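 also: cell death triggered by IL-1 beta plus TNF-alpha plus IFN-gamma mixture; protective hits raise ATP signal compared with cytokine alone wells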
[8] = biological target: T2, Zinc finger protein mex-5 (Caenorhabditis elegans, UniProt Q9XUB2); assay: potency of MEX-5 RNA-binding blockers – biochemical, C. elegans, fluorescence polarization, dose response (AID 1960)
T2 sequence (Q9XUB2 whole entry): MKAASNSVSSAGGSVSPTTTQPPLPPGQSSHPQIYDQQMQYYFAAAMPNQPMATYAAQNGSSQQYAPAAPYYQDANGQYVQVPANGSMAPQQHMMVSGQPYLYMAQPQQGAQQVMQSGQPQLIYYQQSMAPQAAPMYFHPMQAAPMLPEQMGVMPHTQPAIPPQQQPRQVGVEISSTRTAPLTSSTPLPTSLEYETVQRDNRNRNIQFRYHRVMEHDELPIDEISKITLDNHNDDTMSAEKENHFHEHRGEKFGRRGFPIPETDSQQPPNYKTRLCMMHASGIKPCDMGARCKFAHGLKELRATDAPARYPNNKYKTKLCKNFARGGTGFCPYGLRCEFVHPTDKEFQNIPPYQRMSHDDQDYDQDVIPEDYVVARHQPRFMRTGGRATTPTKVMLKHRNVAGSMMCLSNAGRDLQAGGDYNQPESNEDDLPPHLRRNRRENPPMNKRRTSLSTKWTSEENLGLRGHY

[9] = biological target: T3, RNA-binding protein pos-1 (Caenorhabditis elegans, UniProt G5EF15); assay: disruptors of C. elegans POS-1 RNA interaction – biochemical, fluorescence polarization, dose response (AID 1964);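 also: purified POS-1 fused to maltose binding protein made in E. coli; potency of compounds blocking POS-1 binding to fluorescent RNA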
T3 sequence (G5EF15 whole entry): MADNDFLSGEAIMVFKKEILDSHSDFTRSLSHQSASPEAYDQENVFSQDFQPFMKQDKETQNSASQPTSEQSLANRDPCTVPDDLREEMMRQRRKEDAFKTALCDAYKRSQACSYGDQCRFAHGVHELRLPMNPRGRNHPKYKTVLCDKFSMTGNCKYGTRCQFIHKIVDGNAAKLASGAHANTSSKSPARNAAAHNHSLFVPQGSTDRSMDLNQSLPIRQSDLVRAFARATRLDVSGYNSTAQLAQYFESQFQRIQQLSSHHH

Large T antigen = Large T antigen (Simian virus 40, UniProt P03070); type: functional, Betapolyomavirus macacae;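 also: Confirmatory-stage PubChem screen for compounds that inhibit SV40 T antigen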
Protein RecA = biological target: T4, Protein RecA (Mycobacterium tuberculosis, UniProt P9WHJ3); assay: Fluorescence Cell-Free Homogeneous Dose Retest to Identify Inhibitors of RecA-Intein Splicing Activity. [Related pubchem assays (depositor defined):AID2097, AID2223, AID489010, AID492950]; type: functional
T4 sequence (P9WHJ3 whole entry): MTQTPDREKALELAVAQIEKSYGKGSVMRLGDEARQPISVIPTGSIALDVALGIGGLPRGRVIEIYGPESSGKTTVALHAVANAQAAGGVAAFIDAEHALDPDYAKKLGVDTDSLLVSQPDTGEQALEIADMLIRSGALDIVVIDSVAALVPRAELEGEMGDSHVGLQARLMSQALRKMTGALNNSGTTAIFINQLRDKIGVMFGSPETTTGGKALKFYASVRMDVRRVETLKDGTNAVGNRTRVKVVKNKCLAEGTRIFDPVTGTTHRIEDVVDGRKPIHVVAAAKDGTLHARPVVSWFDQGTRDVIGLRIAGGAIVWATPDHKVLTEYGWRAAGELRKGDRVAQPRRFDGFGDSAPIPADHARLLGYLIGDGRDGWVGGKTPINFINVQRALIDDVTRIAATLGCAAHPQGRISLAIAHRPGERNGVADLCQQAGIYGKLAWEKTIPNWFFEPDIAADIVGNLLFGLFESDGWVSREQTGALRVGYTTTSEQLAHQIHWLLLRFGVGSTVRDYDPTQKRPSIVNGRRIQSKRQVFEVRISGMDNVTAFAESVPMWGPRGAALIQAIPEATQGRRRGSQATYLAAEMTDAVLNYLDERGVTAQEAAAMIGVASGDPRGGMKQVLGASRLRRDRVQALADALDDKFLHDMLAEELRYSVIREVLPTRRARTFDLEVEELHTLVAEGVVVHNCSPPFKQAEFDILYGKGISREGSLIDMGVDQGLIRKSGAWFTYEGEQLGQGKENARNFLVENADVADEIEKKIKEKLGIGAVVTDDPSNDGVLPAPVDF

cells = type: functional
Genome polyprotein = Genome polyprotein (dengue virus type 2, UniProt P29990); assay: flavivirus cap methylation enzyme inhibition – biochemical, confirmation dose response, primary screen (AID 588689); type: functional
[10] = biological target: T5, Replicative DNA helicase DnaB (Mycobacterium tuberculosis, UniProt P9WMR3); assay: DnaB intein splicing inhibitors, dose response, biochemical, cell-free fluorescence (AID 449749); type: functional
T5 sequence (P9WMR3 whole entry): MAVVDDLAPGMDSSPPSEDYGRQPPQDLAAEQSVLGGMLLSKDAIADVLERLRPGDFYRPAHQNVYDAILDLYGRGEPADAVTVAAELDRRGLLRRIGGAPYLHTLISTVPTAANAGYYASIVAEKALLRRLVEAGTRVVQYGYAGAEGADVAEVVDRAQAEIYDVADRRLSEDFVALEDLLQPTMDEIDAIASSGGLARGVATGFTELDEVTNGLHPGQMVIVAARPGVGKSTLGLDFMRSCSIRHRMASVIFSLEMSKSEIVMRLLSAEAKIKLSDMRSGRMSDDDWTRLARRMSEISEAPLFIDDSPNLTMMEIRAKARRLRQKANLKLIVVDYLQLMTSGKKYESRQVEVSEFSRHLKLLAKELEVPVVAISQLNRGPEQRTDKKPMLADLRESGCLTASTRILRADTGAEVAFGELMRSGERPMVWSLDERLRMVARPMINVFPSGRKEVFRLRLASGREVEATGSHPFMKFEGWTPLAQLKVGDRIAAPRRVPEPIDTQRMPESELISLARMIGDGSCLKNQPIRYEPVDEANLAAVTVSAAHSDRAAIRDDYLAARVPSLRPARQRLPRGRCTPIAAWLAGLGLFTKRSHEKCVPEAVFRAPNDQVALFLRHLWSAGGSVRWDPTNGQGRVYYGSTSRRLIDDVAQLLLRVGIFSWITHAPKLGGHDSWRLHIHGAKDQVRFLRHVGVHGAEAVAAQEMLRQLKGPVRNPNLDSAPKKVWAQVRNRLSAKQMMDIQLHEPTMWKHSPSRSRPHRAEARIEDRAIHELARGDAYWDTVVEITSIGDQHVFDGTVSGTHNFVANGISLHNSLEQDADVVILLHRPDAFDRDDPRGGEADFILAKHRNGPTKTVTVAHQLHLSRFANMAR

[11] = Luminescence Cell-Based Dose Confirmation HTS to Identify Inhibitors of Platelet Dense Granule Release. [Related pubchem assays: 1663 (Primary HTS), 1678 (Summary of Project)]; type: functional
[12] = biological target: Luciferin 4-monooxygenase (Photinus pyralis, UniProt P08659); assay: inhibition of purified Photinus pyralis luciferase – biochemical, luminescence, dose response (AID 1891)
Luciferin 4-monooxygenase, sequence (P08659 whole entry): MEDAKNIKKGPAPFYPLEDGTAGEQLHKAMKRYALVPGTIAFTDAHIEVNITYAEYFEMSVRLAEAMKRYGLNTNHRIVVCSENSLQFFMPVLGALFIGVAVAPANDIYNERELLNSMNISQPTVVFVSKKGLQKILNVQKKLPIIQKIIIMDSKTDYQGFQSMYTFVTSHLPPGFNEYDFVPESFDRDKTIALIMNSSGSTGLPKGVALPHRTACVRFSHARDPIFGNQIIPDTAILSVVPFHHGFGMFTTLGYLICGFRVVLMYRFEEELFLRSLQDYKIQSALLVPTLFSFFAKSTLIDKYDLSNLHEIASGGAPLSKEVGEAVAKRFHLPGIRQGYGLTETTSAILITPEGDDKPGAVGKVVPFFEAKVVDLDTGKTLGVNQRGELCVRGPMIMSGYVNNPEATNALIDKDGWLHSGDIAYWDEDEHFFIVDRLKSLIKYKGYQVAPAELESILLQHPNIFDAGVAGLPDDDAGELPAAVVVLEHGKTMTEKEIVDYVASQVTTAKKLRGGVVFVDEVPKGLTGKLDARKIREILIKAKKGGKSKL

Cytochrome P450 2D6, sequence (P10635 whole entry): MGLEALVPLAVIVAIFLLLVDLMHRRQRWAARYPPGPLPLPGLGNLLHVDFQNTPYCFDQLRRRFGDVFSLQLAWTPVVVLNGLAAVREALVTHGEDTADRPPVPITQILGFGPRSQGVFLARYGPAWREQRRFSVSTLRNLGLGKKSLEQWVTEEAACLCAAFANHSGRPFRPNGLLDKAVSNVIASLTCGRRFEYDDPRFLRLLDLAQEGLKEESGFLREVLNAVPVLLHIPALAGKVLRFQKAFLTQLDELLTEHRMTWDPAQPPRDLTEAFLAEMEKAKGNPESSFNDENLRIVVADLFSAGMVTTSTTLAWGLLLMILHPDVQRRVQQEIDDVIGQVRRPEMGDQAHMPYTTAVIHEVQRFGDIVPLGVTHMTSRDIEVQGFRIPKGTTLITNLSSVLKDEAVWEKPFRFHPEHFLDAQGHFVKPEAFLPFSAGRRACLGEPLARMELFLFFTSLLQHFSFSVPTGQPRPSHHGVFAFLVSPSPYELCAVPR
Cytochrome P450 2C19, sequence (P33261 whole entry): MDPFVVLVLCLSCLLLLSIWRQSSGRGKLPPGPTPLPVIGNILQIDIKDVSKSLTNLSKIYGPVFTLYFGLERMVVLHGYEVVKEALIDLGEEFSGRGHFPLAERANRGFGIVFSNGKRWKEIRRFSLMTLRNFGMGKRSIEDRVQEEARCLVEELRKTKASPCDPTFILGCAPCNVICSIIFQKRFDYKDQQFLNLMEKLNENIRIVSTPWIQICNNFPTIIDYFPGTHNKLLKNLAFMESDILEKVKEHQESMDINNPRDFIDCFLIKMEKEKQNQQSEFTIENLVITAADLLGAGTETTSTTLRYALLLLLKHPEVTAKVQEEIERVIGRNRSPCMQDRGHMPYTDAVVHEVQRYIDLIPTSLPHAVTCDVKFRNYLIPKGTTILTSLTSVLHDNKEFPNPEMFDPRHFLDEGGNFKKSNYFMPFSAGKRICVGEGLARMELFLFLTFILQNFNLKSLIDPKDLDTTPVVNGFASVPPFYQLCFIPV
Genome polyprotein, sequence (P29990 2492-3391 limits assumed): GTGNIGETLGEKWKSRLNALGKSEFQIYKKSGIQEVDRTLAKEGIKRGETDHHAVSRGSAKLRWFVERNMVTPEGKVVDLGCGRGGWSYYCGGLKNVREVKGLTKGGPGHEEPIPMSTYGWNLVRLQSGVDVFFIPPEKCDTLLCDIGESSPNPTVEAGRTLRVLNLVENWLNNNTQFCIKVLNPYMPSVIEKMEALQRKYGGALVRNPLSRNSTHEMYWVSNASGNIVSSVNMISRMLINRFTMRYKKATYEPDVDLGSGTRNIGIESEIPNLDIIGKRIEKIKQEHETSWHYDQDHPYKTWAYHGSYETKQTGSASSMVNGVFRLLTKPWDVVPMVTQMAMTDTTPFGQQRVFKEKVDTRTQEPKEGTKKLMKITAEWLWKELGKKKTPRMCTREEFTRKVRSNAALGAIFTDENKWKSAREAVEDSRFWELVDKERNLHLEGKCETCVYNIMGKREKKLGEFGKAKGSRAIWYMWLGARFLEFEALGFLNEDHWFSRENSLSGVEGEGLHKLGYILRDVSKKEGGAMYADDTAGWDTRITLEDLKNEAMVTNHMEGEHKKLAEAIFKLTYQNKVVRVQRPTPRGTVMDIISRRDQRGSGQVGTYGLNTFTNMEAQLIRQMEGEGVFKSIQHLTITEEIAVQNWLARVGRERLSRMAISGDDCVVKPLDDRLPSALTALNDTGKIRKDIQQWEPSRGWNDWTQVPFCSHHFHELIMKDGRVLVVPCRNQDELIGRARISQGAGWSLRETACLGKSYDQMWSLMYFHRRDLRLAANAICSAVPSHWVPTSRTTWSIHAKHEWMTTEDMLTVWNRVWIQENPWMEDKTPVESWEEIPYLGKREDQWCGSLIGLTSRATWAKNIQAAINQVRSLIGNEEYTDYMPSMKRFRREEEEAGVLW
Large T antigen, sequence (P03070 whole entry): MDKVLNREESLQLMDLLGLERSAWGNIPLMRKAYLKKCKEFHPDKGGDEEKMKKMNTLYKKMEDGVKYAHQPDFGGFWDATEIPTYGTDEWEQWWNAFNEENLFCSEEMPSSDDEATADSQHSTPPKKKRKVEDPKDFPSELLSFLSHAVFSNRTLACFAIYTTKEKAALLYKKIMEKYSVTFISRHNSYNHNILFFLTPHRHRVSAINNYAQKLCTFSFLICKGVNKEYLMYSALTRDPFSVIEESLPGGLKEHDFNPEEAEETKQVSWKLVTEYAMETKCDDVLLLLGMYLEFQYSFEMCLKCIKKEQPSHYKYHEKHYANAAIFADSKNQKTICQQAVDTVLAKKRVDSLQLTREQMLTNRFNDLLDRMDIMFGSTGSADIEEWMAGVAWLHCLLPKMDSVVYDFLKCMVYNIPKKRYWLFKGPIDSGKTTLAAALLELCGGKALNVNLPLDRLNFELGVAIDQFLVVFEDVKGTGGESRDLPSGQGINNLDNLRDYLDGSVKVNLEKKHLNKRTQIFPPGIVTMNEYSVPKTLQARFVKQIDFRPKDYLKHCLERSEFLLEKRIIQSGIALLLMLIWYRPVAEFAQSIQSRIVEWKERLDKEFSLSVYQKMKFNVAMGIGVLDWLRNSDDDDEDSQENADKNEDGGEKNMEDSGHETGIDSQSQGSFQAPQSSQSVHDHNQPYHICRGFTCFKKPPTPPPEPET

CN(C)c1ccc2nc3c(C(=O)O)cc(=O)c(O)c-3oc2c1
AC50 (Cytochrome P450 2D6): 3.16 µM (inconclusive)
AC50 (Cytochrome P450 2C19): 2.51 µM (inconclusive)

CC(C)(C)c1nn(-c2ccccc2)c2nc(O)c(C=O)cc12
AC50 [1]: 1.68 µM (active)
AC50 [2]: 6.32 µM (active)

CCCCC(CC)CN1C(=O)/C(=C/c2ccncc2)SC1=S (centres undefined)
EC50 [3]: 2.59 µM (active)
EC50 [4]: > 150 µM (not active)
EC50 (BJ [5]): > 150 µM (not active)
EC50 (Streptokinase A): > 150 µM (not active)
EC50 (Streptococcus): 9.05 µM (active)
EC50 (BJ [6]): > 150 µM (not active)
EC50 (BJ [7]): > 150 µM (not active)
AC50 [2]: 7.84 µM (active)
AC50 (INS1): 17.7 µM (active)

Nc1c(N(CCC2=CCCCC2)C(=O)COc2ccc(F)cc2)c(=O)[nH]c(=O)n1Cc1ccccc1
AC50 (INS1): 4.49 µM (active)

CCOc1ccc(N2C(=O)/C(=C/c3ccc(C)o3)C(=O)NC2=S)cc1
EC50 [8]: > 300 µM (not active)
EC50 [9]: > 300 µM (not active)
IC50 (Large T antigen): 49.9 µM (active)

Cc1noc(C)c1-c1nc(Nc2ccncc2)c2ccccc2n1
AC50 (Cytochrome P450 2D6): 12.6 µM (inconclusive)
AC50 (Cytochrome P450 2C19): 31.6 µM (inconclusive)

Cc1cc(N2CCN(Cc3cn(C)nc3-c3ccccc3F)CC2)cc(C)n1
EC50 [4]: 16.3 µM (inconclusive)
EC50 (BJ [5]): 101 µM (inconclusive)
EC50 (BJ [6]): 14.9 µM (active)
EC50 (BJ [7]): 10.1 µM (active)

Cn1nccc1C(=O)Nc1ccc(Cl)cc1
AC50 (Cytochrome P450 2D6): 0.282 µM (inconclusive)

O=C1NC(=O)C(=Cc2ccc(Oc3ccc([N+](=O)[O-])cc3)cc2)C(=O)N1
EC50 (Protein RecA): > 380 µM (inactive)
IC50 (cells): 43 µM (active)
IC50 (Genome polyprotein): 34.5 µM (active)
AC50 [10]: 29.5 µM (active)

COc1cc(NC(=O)c2ccccc2)c(OC)cc1NC(=O)CSc1nc(O)cc(C)c1C#N
EC50 [4]: 34.7 µM (active)
EC50 (BJ [5]): 36 µM (inconclusive)
EC50 (BJ [6]): > 150 µM (not active)
EC50 (BJ [7]): 73.6 µM (inconclusive)
EC50 [11]: 1.21 µM (active)
EC50 [12]: > 112 µM (not active)
